In ChEMBL document CHEMBL1124494, “Synthesis and biological evaluation of S-adenosyl-1,12-diamino-3-thio-9-azadodecane, a multisubstrate adduct inhibitor of spermine synthase” (J Med Chem, 1989):

Biological target: T1, Spermidine synthase (Rattus norvegicus, UniProt Q99MI5)
T1 sequence (Q99MI5 whole entry): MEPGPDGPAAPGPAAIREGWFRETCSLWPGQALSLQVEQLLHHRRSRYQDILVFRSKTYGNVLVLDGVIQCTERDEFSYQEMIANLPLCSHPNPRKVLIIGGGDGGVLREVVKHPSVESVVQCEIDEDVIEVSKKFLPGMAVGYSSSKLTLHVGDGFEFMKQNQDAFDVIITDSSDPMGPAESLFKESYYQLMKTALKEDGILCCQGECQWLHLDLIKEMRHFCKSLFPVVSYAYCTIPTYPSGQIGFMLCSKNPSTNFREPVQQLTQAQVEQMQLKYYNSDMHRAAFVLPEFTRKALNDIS
Experiment: Inhibition of spermidine synthase activity was evaluated
Details: read-out: I50

IC50 [µM]	SMILES
> 500	CCCCCC(CC)SC[C@H]1OC(n2cnc3c(N)ncnc32)[C@H](O)[C@@H]1O (stereo partly drawn)
> 500	CCCNCCCCCC(CC)SC[C@H]1OC(n2cnc3c(N)ncnc32)[C@H](O)[C@@H]1O (stereo partly drawn)
> 13	NCCCNCCCCCC(CCN)SC[C@H]1OC(n2cnc3c(N)ncnc32)[C@H](O)[C@@H]1O (stereo partly drawn)
